Reference: ChEMBL document CHEMBL5038612, “Discovery of a 2,4-diphenyl-5,6-dihydrobenzo(h)quinolin-8-amine derivative as a novel DNA intercalating topoisomerase IIα poison” (Eur J Med Chem, 2021)
Where a name gives a salt, the structure may show the parent alone. Active and inactive are the calls of the source. No cut-off for these calls is given here.

What was measured:
[1] = molecular target: T1, DNA topoisomerase 2-alpha (Homo sapiens, UniProt P11388); experiment: Inhibition of human topoisomerase 2 alpha mediated supercoiled pBR322 DNA relaxation at 100 uM by ethidium bromide staining based agarose gel electrophoresis relative to control
HCT-15 = experiment: Antiproliferative activity against human HCT-15 cells assessed as reduction in cell viability after 48 hrs by Ez-cytoX based microplate reader method; format: functional; details: HCT-15, 48 h
HeLa = experiment: Antiproliferative activity against human HeLa cells assessed as reduction in cell viability after 48 hrs by Ez-cytoX based microplate reader method; format: functional
[2] = molecular target: T1, DNA topoisomerase 2-alpha; experiment: Inhibition of human topoisomerase 2 alpha mediated supercoiled pBR322 DNA relaxation by ethidium bromide staining based agarose gel electrophoresis
DU-145 = experiment: Antiproliferative activity against human DU-145 cells assessed as reduction in cell viability after 48 hrs by Ez-cytoX based microplate reader method; format: functional; details: DU-145, 48 h
SK-OV-3 = experiment: Antiproliferative activity against human SK-OV-3 cells assessed as reduction in cell viability after 48 hrs by Ez-cytoX based microplate reader method; format: functional; details: SK-OV-3, 48 h
BT-474 = experiment: Antiproliferative activity against human BT-474 cells assessed as reduction in cell viability after 48 hrs by Ez-cytoX based microplate reader method; format: functional; details: BT-474, 48 h
LNCaP-Clone-FGC = experiment: Antiproliferative activity against human LNCaP-Clone-FGC cells assessed as reduction in cell viability after 48 hrs by Ez-cytoX based microplate reader method; format: functional
LNCaP = experiment: Antiproliferative activity against human LNCaP-LN3 cells assessed as reduction in cell viability after 48 hrs by Ez-cytoX based microplate reader method; format: functional
Calf thymus DNA [3] = experiment: Binding affinity to calf thymus DNA assessed as DNA intercalation at 10 to 100 uM by fluorescence based EtBr-displacement assay; format: nucleic-acid assay; details: Bos taurus; dose 10-100 µM
Calf thymus DNA [4] = experiment: Binding affinity to calf thymus DNA assessed as DNA intercalation at 100 uM by fluorescence based EtBr-displacement assay relative to control; format: nucleic-acid assay; details: Bos taurus
[5] = molecular target: T1, DNA topoisomerase 2-alpha; experiment: Inhibition of human topoisomerase 2 alpha mediated supercoiled pBR322 DNA relaxation at 2 uM by ethidium bromide staining based agarose gel electrophoresis relative to control
[6] = molecular target: T1, DNA topoisomerase 2-alpha; experiment: Inhibition of human topoisomerase 2 alpha mediated supercoiled pBR322 DNA relaxation at 5 uM by ethidium bromide staining based agarose gel electrophoresis relative to control
[7] = molecular target: T1, DNA topoisomerase 2-alpha; experiment: Inhibition of human topoisomerase 2 alpha mediated supercoiled pBR322 DNA relaxation at 10 uM by ethidium bromide staining based agarose gel electrophoresis relative to control
[8] = molecular target: DNA topoisomerase 2-beta (Homo sapiens) (UniProt Q02880); experiment: Inhibition of human topoisomerase 2 beta mediated supercoiled pBR322 DNA relaxation at 100 uM by ethidium bromide staining based agarose gel electrophoresis relative to control
[9] = molecular target: DNA topoisomerase 2-beta (Homo sapiens) (UniProt Q02880); experiment: Inhibition of human topoisomerase 2 beta mediated supercoiled pBR322 DNA relaxation at 2 uM by ethidium bromide staining based agarose gel electrophoresis relative to control
[10] = molecular target: DNA topoisomerase 2-beta (Homo sapiens) (UniProt Q02880); experiment: Inhibition of human topoisomerase 2 beta mediated supercoiled pBR322 DNA relaxation at 5 uM by ethidium bromide staining based agarose gel electrophoresis relative to control
[11] = molecular target: T1, DNA topoisomerase 2-alpha; experiment: Inhibition of human topoisomerase 2 alpha mediated supercoiled pBR322 DNA relaxation at 1 uM by ethidium bromide staining based agarose gel electrophoresis relative to control

Chain of DNA topoisomerase 2-beta (Homo sapiens) (Q02880 whole entry): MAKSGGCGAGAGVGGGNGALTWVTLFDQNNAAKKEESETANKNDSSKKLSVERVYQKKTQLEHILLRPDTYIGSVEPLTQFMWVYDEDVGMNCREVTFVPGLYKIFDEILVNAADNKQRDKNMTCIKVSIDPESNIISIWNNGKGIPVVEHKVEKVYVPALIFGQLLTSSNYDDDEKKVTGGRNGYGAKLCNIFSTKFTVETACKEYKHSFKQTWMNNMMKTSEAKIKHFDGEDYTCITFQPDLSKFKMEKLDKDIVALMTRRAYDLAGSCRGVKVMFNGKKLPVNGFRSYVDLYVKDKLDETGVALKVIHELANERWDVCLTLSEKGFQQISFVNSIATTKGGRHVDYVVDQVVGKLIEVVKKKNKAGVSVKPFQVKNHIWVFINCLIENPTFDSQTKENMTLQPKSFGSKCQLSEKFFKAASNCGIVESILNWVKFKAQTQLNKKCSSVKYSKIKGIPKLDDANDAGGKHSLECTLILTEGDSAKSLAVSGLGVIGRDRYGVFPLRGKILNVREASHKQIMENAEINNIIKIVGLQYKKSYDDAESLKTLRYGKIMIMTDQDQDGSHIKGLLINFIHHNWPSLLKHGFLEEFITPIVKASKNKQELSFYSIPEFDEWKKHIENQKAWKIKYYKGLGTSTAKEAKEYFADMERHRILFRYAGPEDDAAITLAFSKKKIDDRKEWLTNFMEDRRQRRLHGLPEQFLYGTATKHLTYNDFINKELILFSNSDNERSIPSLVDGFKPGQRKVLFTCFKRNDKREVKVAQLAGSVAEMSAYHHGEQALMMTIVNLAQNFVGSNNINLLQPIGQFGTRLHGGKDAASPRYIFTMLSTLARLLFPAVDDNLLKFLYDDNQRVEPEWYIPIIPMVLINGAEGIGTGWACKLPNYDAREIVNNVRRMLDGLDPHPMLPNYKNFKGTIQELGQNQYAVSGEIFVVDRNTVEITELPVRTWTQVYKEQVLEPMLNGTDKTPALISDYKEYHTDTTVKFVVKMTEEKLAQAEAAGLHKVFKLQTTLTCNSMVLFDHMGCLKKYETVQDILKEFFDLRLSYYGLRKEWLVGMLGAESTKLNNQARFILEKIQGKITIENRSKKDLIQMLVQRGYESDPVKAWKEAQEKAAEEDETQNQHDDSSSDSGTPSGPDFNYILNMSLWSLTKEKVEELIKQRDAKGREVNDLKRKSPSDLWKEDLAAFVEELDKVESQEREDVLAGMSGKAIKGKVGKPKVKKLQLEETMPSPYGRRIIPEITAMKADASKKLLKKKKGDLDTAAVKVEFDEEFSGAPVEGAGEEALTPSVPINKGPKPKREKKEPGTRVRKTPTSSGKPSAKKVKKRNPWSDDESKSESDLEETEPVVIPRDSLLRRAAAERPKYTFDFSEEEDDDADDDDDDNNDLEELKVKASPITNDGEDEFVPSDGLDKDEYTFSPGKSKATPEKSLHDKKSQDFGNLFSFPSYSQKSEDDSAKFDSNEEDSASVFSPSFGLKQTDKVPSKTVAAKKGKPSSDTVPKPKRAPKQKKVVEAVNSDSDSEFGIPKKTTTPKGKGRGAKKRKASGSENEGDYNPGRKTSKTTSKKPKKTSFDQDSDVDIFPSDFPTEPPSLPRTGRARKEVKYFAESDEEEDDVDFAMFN
T1 sequence (P11388 whole entry): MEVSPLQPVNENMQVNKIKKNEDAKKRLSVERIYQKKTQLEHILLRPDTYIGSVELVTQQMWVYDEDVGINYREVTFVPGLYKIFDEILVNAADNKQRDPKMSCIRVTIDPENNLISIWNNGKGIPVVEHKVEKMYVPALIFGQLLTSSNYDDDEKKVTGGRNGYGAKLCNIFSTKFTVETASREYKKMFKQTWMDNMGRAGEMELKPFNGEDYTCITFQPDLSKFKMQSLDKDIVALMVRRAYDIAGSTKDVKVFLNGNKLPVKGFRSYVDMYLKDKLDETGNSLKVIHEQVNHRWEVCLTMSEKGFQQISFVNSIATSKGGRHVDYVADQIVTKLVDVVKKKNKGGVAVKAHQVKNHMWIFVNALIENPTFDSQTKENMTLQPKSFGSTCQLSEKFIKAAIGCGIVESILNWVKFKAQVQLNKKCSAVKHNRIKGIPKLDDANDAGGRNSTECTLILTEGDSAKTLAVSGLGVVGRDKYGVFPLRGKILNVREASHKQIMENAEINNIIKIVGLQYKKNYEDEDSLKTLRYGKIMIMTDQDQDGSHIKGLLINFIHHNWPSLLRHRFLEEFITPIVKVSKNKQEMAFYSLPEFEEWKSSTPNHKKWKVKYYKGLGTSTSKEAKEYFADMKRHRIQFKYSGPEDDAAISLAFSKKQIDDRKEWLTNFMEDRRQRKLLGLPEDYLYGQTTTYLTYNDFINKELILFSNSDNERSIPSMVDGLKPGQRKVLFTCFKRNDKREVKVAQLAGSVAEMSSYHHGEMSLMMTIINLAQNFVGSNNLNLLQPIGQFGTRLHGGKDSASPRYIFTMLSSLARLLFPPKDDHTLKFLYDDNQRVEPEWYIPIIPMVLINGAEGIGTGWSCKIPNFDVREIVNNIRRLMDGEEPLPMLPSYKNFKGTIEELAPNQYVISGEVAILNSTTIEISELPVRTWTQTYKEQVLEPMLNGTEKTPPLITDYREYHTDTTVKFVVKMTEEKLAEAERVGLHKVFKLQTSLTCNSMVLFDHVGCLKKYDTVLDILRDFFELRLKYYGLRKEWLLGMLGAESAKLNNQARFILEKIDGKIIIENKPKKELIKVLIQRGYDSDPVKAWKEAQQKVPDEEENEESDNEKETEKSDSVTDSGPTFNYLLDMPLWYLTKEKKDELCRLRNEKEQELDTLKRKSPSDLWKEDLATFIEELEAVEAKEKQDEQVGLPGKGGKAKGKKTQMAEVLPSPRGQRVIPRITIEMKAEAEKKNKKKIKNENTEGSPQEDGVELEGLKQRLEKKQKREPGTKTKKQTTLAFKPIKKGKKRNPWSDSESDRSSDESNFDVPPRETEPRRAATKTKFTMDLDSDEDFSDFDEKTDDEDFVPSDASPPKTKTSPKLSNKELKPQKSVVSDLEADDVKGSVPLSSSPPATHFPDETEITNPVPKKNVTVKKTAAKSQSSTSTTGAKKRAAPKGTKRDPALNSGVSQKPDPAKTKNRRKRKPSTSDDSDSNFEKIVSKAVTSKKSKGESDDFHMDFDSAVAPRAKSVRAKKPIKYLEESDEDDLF

| inhibition [1] | SMILES | IC50 (HCT-15) | IC50 (HeLa) | also measured |
| --- | --- | --- | --- | --- |
| 72.4% | Nc1ccc2c(c1)CCc1c(-c3ccc(C(F)(F)F)cc3)cc(-c3cccc(O)c3)nc1-2 | 2.34 µM | 4.98 µM | – |
| 72.5% | Nc1ccc2c(c1)CCc1c(-c3ccccc3OC(F)(F)F)cc(-c3ccc(O)cc3)nc1-2 | 2.96 µM | 2.87 µM | – |
| 77.6% | Nc1ccc2c(c1)CCc1c(-c3ccc(F)cc3)cc(-c3ccc(O)cc3)nc1-2 | 2.96 µM | 5.64 µM | – |
| 0% | Nc1ccc2c(c1)CCc1c(-c3ccccc3)cc(-c3ccccc3O)nc1-2 | 3.47 µM | 33.2 µM | – |
| 70% | Nc1ccc2c(c1)CCc1c(-c3ccccc3OC(F)(F)F)cc(-c3ccccc3O)nc1-2 | 2.86 µM | 5.46 µM | – |
| 81.9% | Nc1ccc2c(c1)CCc1c(-c3ccccc3C(F)(F)F)cc(-c3ccc(O)cc3)nc1-2 | 1.99 µM | 5.07 µM | IC50 [2]: 3.58 µM; IC50 (DU-145): 1.56 µM; IC50 (SK-OV-3): 1.67 µM; IC50 (BT-474): 5.13 µM; IC50 (LNCaP-Clone-FGC): 7.18 µM; IC50 (LNCaP): 5.58 µM; Activity (Calf thymus DNA [3]): Dose-Dependent Effect; Activity (Calf thymus DNA [4]): inactive; inhibition [5]: 34.4%; inhibition [6]: 57%; inhibition [7]: 66.2%; inhibition [8]: 82.6%; inhibition [9]: 19.6%; inhibition [10]: 21.7%; inhibition [11]: 22.3% |
| – | COc1cc([C@@H]2c3cc4c(cc3[C@@H](O[C@@H]3O[C@@H]5CO[C@@H](C)O[C@H]5[C@H](O)[C@H]3O)[C@H]3COC(=O)[C@H]23)OCO4)cc(OC)c1O [ETOPOSIDE] | – | 8.3 µM | – |
| 29.3% | Nc1ccc2c(c1)CCc1c(-c3ccccc3C(F)(F)F)cc(-c3ccccc3O)nc1-2 | 1.23 µM | 6.58 µM | – |
| 75% | Nc1ccc2c(c1)CCc1c(-c3cccc(C(F)(F)F)c3)cc(-c3ccc(O)cc3)nc1-2 | 2 µM | 5.14 µM | – |
| 1.2% | Nc1ccc2c(c1)CCc1c(-c3ccccc3F)cc(-c3ccccc3O)nc1-2 | 1.11 µM | 22.8 µM | – |
| 25.7% | Nc1ccc2c(c1)CCc1c(-c3cccc(C(F)(F)F)c3)cc(-c3ccccc3O)nc1-2 | 2.29 µM | 7.61 µM | – |
| 30.2% | Nc1ccc2c(c1)CCc1c(-c3ccc(OC(F)(F)F)cc3)cc(-c3ccccc3O)nc1-2 | > 50 µM | > 50 µM | – |
| 1.5% | Nc1ccc2c(c1)CCc1c(-c3ccccc3)cc(-c3cccc(O)c3)nc1-2 | 3.3 µM | 4.05 µM | – |
| 77.8% | Nc1ccc2c(c1)CCc1c(-c3ccc(C(F)(F)F)cc3)cc(-c3ccc(O)cc3)nc1-2 | 2.73 µM | 5.54 µM | – |
| 10.5% | Nc1ccc2c(c1)CCc1c(-c3cccc(F)c3)cc(-c3ccc(O)cc3)nc1-2 | 1.85 µM | 5.05 µM | – |
| 3.9% | Nc1ccc2c(c1)CCc1c(-c3ccc(F)cc3)cc(-c3cccc(O)c3)nc1-2 | 2.87 µM | 5.18 µM | – |

| inhibition [1] | SMILES | IC50 (HCT-15) | IC50 (HeLa) | also measured |
| --- | --- | --- | --- | --- |
| 25.3% | Nc1ccc2c(c1)CCc1c(-c3ccccc3F)cc(-c3ccc(O)cc3)nc1-2 | 1.52 µM | 3.26 µM | – |
| 28.8% | Nc1ccc2c(c1)CCc1c(-c3ccc(C(F)(F)F)cc3)cc(-c3ccccc3O)nc1-2 | > 50 µM | > 50 µM | – |
| 4.3% | Nc1ccc2c(c1)CCc1c(-c3ccccc3F)cc(-c3cccc(O)c3)nc1-2 | 1.92 µM | 5.38 µM | – |
| 36.5% | Nc1ccc2c(c1)CCc1c(-c3ccc(OC(F)(F)F)cc3)cc(-c3ccc(O)cc3)nc1-2 | 2.02 µM | 5.86 µM | – |
| 62.9% | Nc1ccc2c(c1)CCc1c(-c3cccc(C(F)(F)F)c3)cc(-c3cccc(O)c3)nc1-2 | 2.43 µM | 4.49 µM | – |
| 36.5% | Nc1ccc2c(c1)CCc1c(-c3cccc(OC(F)(F)F)c3)cc(-c3ccc(O)cc3)nc1-2 | 1.79 µM | 3.78 µM | – |
| 60% | Nc1ccc2c(c1)CCc1c(-c3cccc(OC(F)(F)F)c3)cc(-c3cccc(O)c3)nc1-2 | 1.84 µM | 4.62 µM | – |
| 21.7% | Nc1ccc2c(c1)CCc1c(-c3ccccc3)cc(-c3ccc(O)cc3)nc1-2 | 3.82 µM | 6.55 µM | – |
| 49% | Nc1ccc2c(c1)CCc1c(-c3ccc(OC(F)(F)F)cc3)cc(-c3cccc(O)c3)nc1-2 | 2.71 µM | 5.59 µM | – |
| – | COc1cccc2c1C(=O)c1c(O)c3c(c(O)c1C2=O)C[C@@](O)(C(=O)CO)C[C@@H]3O[C@H]1C[C@H](N)[C@H](O)[C@H](C)O1 [DOXORUBICIN HYDROCHLORIDE] | 1.89 µM | – | – |
| 1.2% | Nc1ccc2c(c1)CCc1c(-c3ccc(F)cc3)cc(-c3ccccc3O)nc1-2 | > 50 µM | > 50 µM | – |
| 62.8% | Nc1ccc2c(c1)CCc1c(-c3ccccc3OC(F)(F)F)cc(-c3cccc(O)c3)nc1-2 | 5.58 µM | 3.41 µM | – |
| 3.4% | Nc1ccc2c(c1)CCc1c(-c3cccc(F)c3)cc(-c3cccc(O)c3)nc1-2 | 3.91 µM | 4.19 µM | – |
| 1.3% | Nc1ccc2c(c1)CCc1c(-c3cccc(F)c3)cc(-c3ccccc3O)nc1-2 | 2.26 µM | 8.16 µM | – |
| 87.4% | Nc1ccc2c(c1)CCc1c(-c3ccccc3C(F)(F)F)cc(-c3cccc(O)c3)nc1-2 | 2.93 µM | 5.4 µM | – |
